This passage reports IC50 and inhibition results from patent US9623028B2, “Methods of treating a cancer using substituted pyrrolopyrimidine compounds, compositions thereof” (Signal Pharmaceuticals, LLC, priority 2014, dated 2017).

Structures are written as SMILES.

Assay [1] addresses T1, CLK1 (Homo sapiens (Human), UniProt P49759). The conditions noted are these: read-out: CLK1 (IC50).
Assay [2] concerns the target T2, CLK2 (Homo sapiens (Human), UniProt P49760). Briefly: biochemical. The following applies: read-out: CLK2 (% Inh.), % inhibition at 3 μM.
The target of assay [3] is T1, CLK1. Briefly: biochemical. The following applies: read-out: CLK1 (% Inh.), % inhibition at 3 μM.
Assay [4] concerns the target T2, CLK2. The conditions noted are these: read-out: CLK2 (IC50).

T1 sequence (P49759 whole entry): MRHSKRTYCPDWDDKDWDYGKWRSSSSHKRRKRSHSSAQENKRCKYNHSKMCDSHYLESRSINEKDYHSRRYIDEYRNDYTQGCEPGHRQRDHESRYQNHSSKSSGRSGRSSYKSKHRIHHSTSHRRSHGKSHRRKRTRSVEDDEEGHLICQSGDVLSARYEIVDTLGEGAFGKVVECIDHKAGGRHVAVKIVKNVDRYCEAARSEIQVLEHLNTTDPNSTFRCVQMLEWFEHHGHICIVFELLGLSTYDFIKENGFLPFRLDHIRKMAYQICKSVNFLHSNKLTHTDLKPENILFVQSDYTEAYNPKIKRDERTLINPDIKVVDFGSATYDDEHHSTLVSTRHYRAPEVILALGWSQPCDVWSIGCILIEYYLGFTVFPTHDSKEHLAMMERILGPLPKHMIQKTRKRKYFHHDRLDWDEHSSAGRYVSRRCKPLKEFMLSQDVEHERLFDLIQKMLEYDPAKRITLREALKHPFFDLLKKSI
T2 sequence (P49760 whole entry): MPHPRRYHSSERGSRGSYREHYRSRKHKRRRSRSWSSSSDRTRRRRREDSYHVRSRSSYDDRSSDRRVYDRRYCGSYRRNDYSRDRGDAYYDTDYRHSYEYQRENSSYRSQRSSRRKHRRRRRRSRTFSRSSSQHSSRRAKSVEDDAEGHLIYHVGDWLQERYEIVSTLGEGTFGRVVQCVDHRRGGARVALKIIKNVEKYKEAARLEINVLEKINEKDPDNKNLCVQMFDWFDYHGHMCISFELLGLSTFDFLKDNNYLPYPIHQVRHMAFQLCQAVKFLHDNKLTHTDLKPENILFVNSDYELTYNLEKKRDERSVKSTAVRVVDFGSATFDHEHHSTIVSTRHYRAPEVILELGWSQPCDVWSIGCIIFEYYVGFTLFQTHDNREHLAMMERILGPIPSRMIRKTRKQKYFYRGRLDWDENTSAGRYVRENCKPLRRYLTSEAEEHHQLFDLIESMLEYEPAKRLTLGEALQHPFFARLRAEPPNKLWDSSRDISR

As usually defined, the IC50 is the concentration that gives 50% inhibition. In general, inhibition refers to the change of the read-out against control, counted positive when it falls. With `CNC(=O)c1ccc(-c2c[nH]c3nc(Nc4ccc(C(=O)NC5CN(C)C5)cc4OC)nc(OC4CCC(C)(O)CC4)c23)cc1` (stereo not shown) [Compound 349, 4-(4-((1s,4s)-4-hydroxy-4-methylcyclohexyloxy)-5-(4-(methylcarbamoyl)phenyl)-7H-pyrrolo[2,3-d]pyrimidin-2-ylamino)-3-methoxy-N-(1-methylazetidin-3-yl)benzamide], the IC50 was found to be 59.3 nM in assay [1] and 1.43 nM in assay [4]. Besides, the inhibition at 3 µM was 102% in assay [2] and 101% in assay [3].
